Calls of active or inactive are those of the source.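 Rule for the calls: active = EC50 at or below a set limit, with no effect in the paired counter-screen assay; inactive = the rest.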
Molecular target: Aedes aegypti neuropeptide Y-like receptor 7 (NPYLR7)
Assay: agonists of mosquito NPYLR7 receptor, confirmation, cell-based, Aedes aegypti, hit validation, mosquito biting behavior (AID 1259427);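 note: potency of agonists that activate the receptor and raise the calcium signal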
Details: HEK293T NPYLR7/Galpha15/GCaMP6s, calcium fluorescence

| SMILES | EC50 |
| --- | --- |
| CCOC(=O)c1ccccc1-c1c2ccc(=N)cc-2oc2cc(N)ccc12 | < 0.039 µM (inactive) |
| OCCN(CCO)c1nc(N2CCCCC2)c2nc(N(CCO)CCO)nc(N3CCCCC3)c2n1 | inactive |
| COc1cc(/C=C2\SC(=S)N(C(C)C(=O)O)C2=O)ccc1O (stereo unspecified) | inactive |
| Cc1cc(O)c(CN2CCCC2)c2c1C(=O)/C(=C/c1cc3ccccc3o1)O2 | > 20 µM (inactive) |
| COc1cc(C=C2N=C(c3ccc4c(c3)OCO4)OC2=O)cc2c1OCCO2 | > 20 µM (inactive) |
| CC(C)N=c1c([N+](=O)[O-])nn(-c2ccc(Cl)cc2)n1O | > 20 µM (inactive) |
| Cc1cc(O)c(CN2CCN(C)CC2)c2c1C(=O)/C(=C/c1cccs1)O2 | > 20 µM (inactive) |
| O=C1NC(=O)C2=Cc3ccc(O)cc3OC2(O)N1 (stereo unspecified) | inactive |
| N#CC1C(=N)Oc2cc(N)ccc2C1c1c(Cl)cccc1Cl (stereo unspecified) | > 20 µM (inactive) |
| Cc1cc(C)c2cc3c(cc2n1)CCN3CC(O)CO (stereo unspecified) | inactive |
| Nc1nc(Cl)nc2c1ncn2[C@@H]1O[C@H](COP(=O)(O)OP(=O)(O)OP(=O)(O)O)[C@H](O)C1O (stereo partly specified) | < 0.039 µM (inactive) |
| O=c1cc(C(F)(F)F)c2ccc(O)cc2o1 | inactive |
| Cc1ccc(CN(C(=O)c2cc3cc(Cl)ccc3[nH]2)C(C)C)o1 | > 20 µM (inactive) |
| COc1ccc(Cl)cc1NC(=O)/C(C#N)=C/c1coc2ccc(C)cc2c1=O | > 20 µM (inactive) |
| Nc1c2c(nc3sc4c(c13)CCCC4)CCCCC2 | > 20 µM (inactive) |
| N#C/C(=C/c1ccc(N2CCCCC2)o1)c1cccc(F)c1 | > 20 µM (inactive) |
| CCN(CC)C1=CC2=CC(=C(C#N)C#N)CCC2CC1 (stereo unspecified) | < 0.039 µM (inactive) |
| Cc1ccc(Nc2nc(Nc3cccc(F)c3)nc3nccnc23)c(C)c1 | > 20 µM (inactive) |
| CC(C)CN1C(=O)C(=Cc2c(N3CCN(CCO)CC3)nc3ccccn3c2=O)SC1=S | > 20 µM (inactive) |
| COCCn1c(C)cn2c3c(=O)n(Cc4ccc(Cl)cc4)c(=O)n(C)c3nc12 | > 20 µM (inactive) |
| CCC(CO)[n+]1c(C)cc(C=C2Sc3ccccc3N2Cc2ccccc2)cc1C (stereo unspecified) | 9.8 µM |

| SMILES | EC50 |
| --- | --- |
| Cc1cc(O)c(CN2CCCCC2)c2c1C(=O)/C(=C/c1cc3ccccc3o1)O2 | > 20 µM (inactive) |
| Cc1ccc(NC2C=CS(=O)(=O)C2)cc1C (stereo unspecified) | > 20 µM (inactive) |
| Cc1cc2nc3c(=O)[nH]c(=O)nc-3n(CC(O)C(O)C(O)CO)c2cc1C (stereo unspecified) | < 0.039 µM (inactive) |
| COc1cc(C=C(C#N)C(=O)OC(C)C)cc(Cl)c1O | > 20 µM (inactive) |
| CCCC1CCC(C(=O)Nc2nnc(SCC)s2)CC1 (stereo unspecified) | > 20 µM (inactive) |
| O=C(O)c1ccccc1-c1c2cc(Br)c(=O)cc-2oc2[c]([Hg])c(O)c(Br)cc12 | < 0.039 µM (inactive) |
| CCOc1cc(/C=C2/Oc3cc(O)ccc3C2=O)cc(Cl)c1OCC(=O)N(C)C | 16.6 µM |
| CCCc1[nH]n(-c2ccc(Cl)c(Cl)c2)c(=O)c1/C=C1\NC(=O)N(Cc2ccc(C)cc2)C1=O | > 20 µM (inactive) |
| CCOc1cc(/C=C(\C#N)c2nc3ncc(Br)cc3[nH]2)ccc1O | inactive |
| CCOc1ccc(/C=C2N=C(/C=C/c3ccccc3)OC/2=O)cc1 | > 20 µM (inactive) |
| COc1cc(/C=C/c2nc3ccccc3o2)cc(Cl)c1O | inactive |
| COc1ccc(OC)c(CCNc2nc3cnc(-c4cccc5ccccc45)cc3n2C)c1 | 12.4 µM |
| COc1ccc(C(=O)C=Cc2cc(Br)c(O)c(OC)c2)cc1F | inactive |
| CSc1ccc(C2CC(c3cccs3)=Nc3ncnn32)cc1 (stereo unspecified) | inactive |
| CCOC(=O)c1cc(O)c(C(=O)OCC)s1 | > 20 µM (inactive) |
| CC(C)c1nc(NC(=O)c2[nH]ncc2Br)n(C)n1 | inactive |
| O=C1OC(c2ccc(Cl)c([N+](=O)[O-])c2)=N/C1=C\c1cc2cc3c4c(c2oc1=O)CCCN4CCC3 | < 0.039 µM (inactive) |
| CC1C(=O)c2cccc3c(=O)n(-c4ccccc4)c(O)c(c23)C1=O (stereo unspecified) | 5.77 µM |
| Nc1c(S(=O)(=O)O)cc2c3c(cccc13)C(=O)N(CCO)C2=O | inactive |
| COc1ccc(C2=NN(C(=O)CN3CCOCC3)C(c3nc4ccccc4[nH]3)C2)cc1 (stereo unspecified) | > 20 µM (inactive) |
| COc1ccc(OC)c(CCNc2nc3cnc(-c4ccc5c(c4)OCO5)cc3n2C)c1 | 8.34 µM |

| SMILES | EC50 |
| --- | --- |
| CCN1CCc2c(sc(NC(=O)COc3ccccc3)c2-c2nc3ccccc3s2)C1 | > 20 µM (inactive) |
| O=C1c2cccc3c(NCC(O)CCl)ccc(c23)C(=O)N1c1ccccc1 (stereo unspecified) | < 0.039 µM (inactive) |
| CCN1CCc2c(sc(NC(=O)c3ccccc3)c2-c2nc3ccccc3s2)C1 | > 20 µM (inactive) |
| CC(C)COCC(O)CN(Cc1cccn1C)CC1CCCO1 (stereo unspecified) | > 20 µM (inactive) |
| CCN1CCN(C(=O)c2ccc(Cn3ccsc3=NC(=O)c3ccc(OC)c(OC)c3)o2)CC1 | 14.3 µM |
| CCN(CC)CC[n+]1c(C)cc(C=C2Sc3ccccc3N2C)cc1C | > 20 µM (inactive) |
| CCOC(=O)N1CCC(NC(=O)c2sc3nc4c(c(C(F)(F)F)c3c2N)CC(C)CC4)CC1 (stereo unspecified) | > 20 µM (inactive) |
| CC(=O)Nc1nc(COC(=O)c2[nH]c(C)c(C(=O)OC(C)C)c2C)cs1 | > 20 µM (inactive) |
| O=C1c2ccccc2-c2nn(CN3CCN(c4ccccc4)CC3)c3cccc1c23 | > 20 µM (inactive) |
| COc1ccccc1N=c1oc2cc(O)ccc2cc1-c1nc2ccccc2[nH]1 | inactive |
| C=CCN1C(=O)/C(=C\c2ccc(O)cc2)SC1=S | > 20 µM (inactive) |
| O=c1oc2cc(O)ccc2cc1-c1nc2ccccc2s1 | inactive |
| COc1cccc(CNC2CC2)c1OCc1nc(CO)cs1 | > 20 µM (inactive) |
| N#CC(=Cc1c(F)c(F)c(F)c(F)c1F)c1ccccn1 | > 20 µM (inactive) |
| NCCNc1ccc2c3c(cccc13)C(=O)N(c1ccc(Cl)cc1)C2=O | inactive |
| CCCCCn1c(=O)c2c(nc3n2CCN3c2cc(C)cc(C)c2)n(C)c1=O | > 20 µM (inactive) |
| CCOC(=O)C1CCCN(c2nc3nonc3nc2N2CCSCC2)C1 (stereo unspecified) | > 20 µM (inactive) |
| COc1cc(OC)cc(C(=O)N2CCN(C(C(=O)Nc3ccc(NC(C)=O)cc3)C3CCCC3)CC2)c1 (stereo unspecified) | > 20 µM (inactive) |
| Cc1[nH]c(/C=C2\C(=O)Nc3ccccc32)c(C)c1CCC(=O)O | < 0.039 µM (inactive) |
